Read-outs that look alike come from different tables or passages of the source.
Key:
[1] = Stability assay of human liver microsome; assay type: in vitro ADME; conditions: human liver microsomes
Method: The stability of human liver microsome was detected by in vitro co-incubation of compounds with human liver microsomes. Test compounds were first prepared as 10 mM stock solutions in DMSO solvent, followed by dilution of the compounds to 0.5 mM using acetonitrile. […] The deep-well plate was taken, […] was added to each well, then 15 μL of pre-warmed 6 mM NADPH solution was added to the plate to start the reaction, and the plate was incubated at 37° C. […] The supernatant was taken after centrifugation, and added with purified water at a ratio of 1:1 for LC-MS/MS detection to obtain the ratio of peak area of compound to peak area of internal standard at each time point. […] T1/2 was calculated using Excel.

[2] = Thermodynamic solubility assay; assay type: physicochemical; conditions: thermodynamic from solid
Method: The compounds were weighed out accurately, added to the prepared phosphate buffered saline at pH 7.4, FeSSIF solution at pH 5.8 and FaSSGF solution at pH 1.6 to prepare a solution at a concentration of 4 mg/mL, and the prepared solution was shaken at 1000 rpm for 1 h, and then incubated overnight at room temperature. The incubated solution was centrifuged at 12000 rpm for 10 min to remove undissolved particles, and the supernatant was transferred to a new centrifuge tube. After the supernatant was diluted properly, the supernatant was added with an acetonitrile solution containing an internal standard, and quantified by adopting a standard curve prepared by the same matrix.

[3] = In vivo pharmacokinetic assay in mice; conditions: male, ICR, mouse, plasma
Method: (§1) In vivo pharmacokinetic assay in rats was performed, wherein the used rats were 6 male SD rats weighing 180-240 g and fasted overnight. […] Blood samples were centrifuged at 8000 rpm for 6 min at 4° C., and plasma was collected and stored at −20° C. The plasma at each time point was taken and added with 3-5 times of acetonitrile solution containing the internal standard for mixing, and the mixed solution was subjected to vortex mixing for 1 min, and centrifuging at 4° C. for 10 min at 13000 rpm. The supernatant was taken and added with 3 times of water for mixing. A proper amount of the mixed solution was taken for LC-MS/MS analysis. The major pharmacokinetic parameters were analyzed using WinNonlin 7.0 software and a non-compartmental model.
In vivo pharmacokinetic assay in mice was performed, wherein the used mice were 18 male ICR mice weighing 20-25 g and fasted overnight. […] The rest of the procedure was performed in the same manner as in the pharmacokinetic assay in rats.

[4] = In vivo pharmacokinetic assay in rats
Method: as §1

[5] = system: Bleomycin-induced IPF model; experiment: Bleomycin-induced IPF model in rats; assay type: in vivo; conditions: 30 mg/kg oral twice a day, 21 days
Method: The bleomycin-induced IPF model (idiopathic pulmonary fibrosis model) was performed at a dose of 5 U/kg using male BN rats weighing 180-240 g. […] The oral intragastric administration was performed twice a day on the second day after the modeling. The administration group was given a dose of 30 mg/kg at one time, and the vehicle control group was given blank vehicle for 21 consecutive days. During dosing, body weights were weighed every three days. On the 21st day of administration, bronchoalveolar lavage was performed 2 h after the first administration, the inflammatory cells in the lavage fluid were counted, and the relevant biomarkers in the lavage fluid supernatant were detected; after lavage, the left lung of the rat was harvested for fixation, and Masson's trichrome staining was used for pathological scoring of fibrosis and the remaining lung lobes were cryopreserved. The bronchoalveolar lavage fluid supernatant and freshly cryopreserved lung tissue of compound 3 group were taken, and the TGF-β1 protein content and total protein amount were detected by ELISA method, and the amount of TGF-β1 per mg of total protein was calculated.

Autotaxin enzyme = Autotaxin enzyme (Homo sapiens (Human), UniProt Q13822); conditions: read-out: IC50 against ATX enzymatic activity; Autotaxin Inhibitor Screening Assay Kit, 37° C., 30 min, OD405
Method: The inhibitory activity of the compound against the Autotaxin enzyme was detected using the Autotaxin Inhibitor Screening Assay Kit (Cayman, 700580). The compound to be tested was first prepared into 10 mM stock solution in DMSO solvent, and then serially diluted into 8 concentrations of compound with DMSO. Subsequently, 8 concentrations of compound were diluted to 19× compound working solution (with DMSO content of 1.9%) with an Autotaxin Assay buffer (1×) provided in the kit. Autotaxin Assay Reagent (10×) was taken out and diluted 10-fold with Autotaxin Assay Buffer (1×). The Autotaxin Substrate was taken out, and added with 1.2 mL of Autotaxin Assay Buffer (1×) for dissolving. The mixture was mixed well and then let stand at room temperature. In a 96-well plate, 150 μL of Autotaxin Assay Buffer (1×), 10 μL of diluted 19× compound working solution, 10 μL of Autotaxin Assay Reagent (1×), 20 μL of dissolved Autotaxin Substrate were added into wells at each concentration, and then the mixture was mixed well, incubated at 37° C. on a constant-temperature shaking shaker, and incubated in the dark for 30 min.

hERG channel [6] = target: T1, hERG channel (Homo sapiens (Human), UniProt Q12809); conditions: hERG IC50 in μM divided by ATX IC50 in nM as printed
Method: (§2) Inhibitory effect of the compound on hERG was detected using automated electrophysiological patch clamp QPatch. The cells used in this assay were CHO cell lines (supplied by Sophion Bioscience, Denmark) transfected with hERG cDNA and stably expressing hERG channel at cell passage number of P24. The cells were cultured in a medium containing the following components (all purchased from Invitrogen): ham's F12 medium, 10% (v/v) inactivated fetal bovine serum, 100 μg/mL hygromycin B and 100 μg/mL Geneticin. CHO hERG cells were grown in a culture dish containing the above culture solution and cultured in an incubator containing 5% CO2 at 37° C.
(§3) Extracellular buffer (2 mM CaCl2, 1 mM MgCl2, 4 mM KCl, 145 mM NaCl, 10 mM Glucose, 10 mM HEPES, pH: about 7.4, osmotic pressure: about 305 mOsm) and intracellular buffer (5.374 mM CaCl2, 1.75 mM MgCl2, 120 mM KCl, 10 mM HEPES, 5 mM EGTA, 4 mM Na-ATP, pH: about 7.25, osmotic pressure: about 295 mOsm) were prepared. […]
(§4) The assay data were analyzed by Qpatch analysis software supplied by Sophion, Excel, Graphpad Prism and the like.

hERG channel [7] = target: T1, hERG channel; experiment: cell-based
Method: as §2, §3, §4

[8] = target: ATX enzymatic activity in human plasma (Homo sapiens (Human), UniProt Q13822); experiment: biochemical
Method: Whole blood from healthy volunteers was collected and anticoagulated with heparin. The blood collection tubes were centrifuged at 3000 rpm for 10 min, and plasma was taken and stored at −80° C. for later use.
The compounds were serially diluted with DMSO according to the standard concentration requirements, and then 3 μL of the compound was taken and added to a 96-well plate. 147 μL of PBS was added to each well containing 3 μL of the compound, and the mixed solution was mixed well, and then 50 μL of the mixed solution was taken out and added to a new 96-well plate. The human plasma was taken out of −80° C. refrigerator and thawed by rapid shaking in a 37° C. water bath, and 50 μL of human plasma was added to a 96-well plate containing 50 μL of diluted compounds (the final system was 1% DMSO). […]
After the incubation, the blank group was thawed on ice and transferred to the incubation plate. […] The peak areas of LPA18:2 and internal standard LPA17:0 were detected by LC-MSMS mass spectrometry.
The peak area ratio of LPA18:2 to internal standard LPA17:0 was calculated, and the generation inhibition rate of LPA18:2 was calculated according to the following formula: […]
According to the inhibition rate of different concentrations of the compound, the IC50 values of the compound were calculated for inhibition of ATX enzymatic activity in human plasma.

[9] = oral intragastric administration 10 mg/kg
[10] = male, SD, rat, plasma, intravenous injection 1 mg/kg
[11] = male, SD, rat, plasma, oral intragastric administration 10 mg/kg

T1 sequence (Q12809 whole entry): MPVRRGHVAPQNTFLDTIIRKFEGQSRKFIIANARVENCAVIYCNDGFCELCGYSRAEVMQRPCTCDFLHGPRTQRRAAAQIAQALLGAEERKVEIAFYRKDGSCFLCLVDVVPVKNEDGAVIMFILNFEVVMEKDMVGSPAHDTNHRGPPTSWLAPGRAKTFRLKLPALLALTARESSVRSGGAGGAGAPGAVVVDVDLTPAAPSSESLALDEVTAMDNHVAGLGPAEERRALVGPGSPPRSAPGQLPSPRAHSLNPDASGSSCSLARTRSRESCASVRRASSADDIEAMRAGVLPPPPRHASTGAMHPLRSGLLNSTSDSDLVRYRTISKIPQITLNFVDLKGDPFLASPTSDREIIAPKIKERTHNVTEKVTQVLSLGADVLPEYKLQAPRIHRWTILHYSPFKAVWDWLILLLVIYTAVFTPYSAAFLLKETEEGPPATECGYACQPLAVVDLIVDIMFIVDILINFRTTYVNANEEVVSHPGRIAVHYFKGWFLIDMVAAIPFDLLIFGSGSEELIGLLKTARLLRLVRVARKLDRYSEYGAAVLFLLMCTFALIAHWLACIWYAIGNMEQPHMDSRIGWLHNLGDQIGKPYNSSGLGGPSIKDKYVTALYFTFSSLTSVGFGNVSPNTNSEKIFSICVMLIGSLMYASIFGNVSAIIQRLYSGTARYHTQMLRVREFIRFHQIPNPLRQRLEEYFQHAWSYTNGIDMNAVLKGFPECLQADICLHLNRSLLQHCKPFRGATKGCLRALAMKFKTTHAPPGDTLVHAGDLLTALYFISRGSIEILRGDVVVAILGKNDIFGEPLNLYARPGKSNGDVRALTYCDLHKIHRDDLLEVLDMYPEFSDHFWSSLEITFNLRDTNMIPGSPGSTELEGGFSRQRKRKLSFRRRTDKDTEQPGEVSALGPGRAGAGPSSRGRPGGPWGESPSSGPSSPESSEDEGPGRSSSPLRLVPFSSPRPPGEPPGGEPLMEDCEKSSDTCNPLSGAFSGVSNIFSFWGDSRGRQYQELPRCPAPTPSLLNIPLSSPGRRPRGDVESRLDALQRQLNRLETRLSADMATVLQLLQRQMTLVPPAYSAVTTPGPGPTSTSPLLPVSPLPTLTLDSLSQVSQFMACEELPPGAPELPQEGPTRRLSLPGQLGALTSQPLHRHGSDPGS

Q: Which results are given for `C[C@H](Cc1cnn[nH]1)OCC(=O)N1Cc2cnc(NC3Cc4ccccc4C3)nc2C1` [Compound of formula (I), (R)-2-((1-(1H-1,2,3-triazol-5-yl)propan-2-yl)oxy)-1-(2-((2,3-dihydro-1H-inden-2-yl)amino)-5,7-dihydro-6H-pyrrolo[3,4-d]pyrimidin-6-yl)ethan-1-one]?
A: T1/2 of the liver microsome stability relative to the control compound [1]: more than 2 times; Remaining percentage of compound after 30 min of incubation (%) ([1]; NADPH, 37° C.): 63.7%; half-life at 1.5 μM ([1]; NADPH, 37° C.): 53.6 min; solubility ([2]; FaSSGF solution, fassgf or other biorelevant, heading: Solubility FaSSGF, FaSSGF, pH 1.6, room temperature overnight): 1.04 mg/mL; solubility ([2]; FeSSIF solution, FeSSIF, pH 5.8, room temperature overnight, read-out: Solubility FeSSIF (pH 5.8)): 260 mg/mL; solubility ([2]; phosphate buffered saline, aqueous buffer, PBS, pH 7.4, room temperature overnight, read-out: Solubility PBS (pH 7.4)): 107 mg/mL; AUC(0-t) ([3]; intravenous injection 1 mg/kg): 626 ng·h/mL; clearance ([3]; intravenous injection 1 mg/kg): 26.7 mL/min/kg; half-life ([3]; intravenous injection 1 mg/kg): 22.8 min; Vd ([3]; intravenous injection 1 mg/kg, read-out: Vz): 0.88 L/kg; AUC(0-t) [3, 9]: 6370 ng·h/mL; Cmax [3, 9]: 6360 ng/mL; Tmax [3, 9]: 15 min; half-life [3, 9]: 52.2 min; clearance (CL) in rats relative to that of the control compound [4]: about ⅙; AUC(0-t) [4, 10]: 3650 ng·h/mL; clearance [4, 10]: 4.67 mL/min/kg; half-life [4, 10]: 30 min; Vd ([4]; male, SD, rat, plasma, intravenous injection 1 mg/kg, read-out: Vz): 0.21 L/kg; AUC(0-t) [4, 11]: 20700 ng·h/mL; Cmax [4, 11]: 15800 ng/mL; Tmax [4, 11]: 19.8 min; half-life [4, 11]: 154 min; AUC0-t of oral administration relative to the control compound ([4]; oral): 4.2 times; Cmax of oral administration relative to the control compound ([4]; oral): 6.1 times; content of TGF-β1 in freshly cryopreserved lung tissue ([5]; ELISA, FIG. 44): significantly lower than that of the vehicle control group; content of TGF-β1 in the bronchoalveolar lavage fluid supernatant ([5]; ELISA, FIG. 44): significantly lower than that of the vehicle control group; weight loss of the animals ([5]; FIG. 43): significantly less than that of the control compound group; IC50 (Autotaxin enzyme): 1.59 nM; hERG IC50/ATX IC50 (hERG channel [6]): 9.48/1.59 = 6.0; IC50 (hERG channel [7]): 9480 nM; IC50 [8]: 4.7 nM
